Data from patent publication US20250170266A1 (ZYMEWORKS BC INC., priority 2022, published 2025).
Where two headings read alike, the source gives them in different places.

Legend:
Assay type in all cases: cell-based
[1] = system: Human peripheral blood mononuclear cells (PBMCs); assay: Human PBMC Assay, cytokine release (HTRF); settings: PBMC, 24 hours
Procedure, shortened: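 Cryopreserved human PBMCs, rested overnight with 10 ng/ml hIL3, then 300,000 cells/well treated 24 h at 37° C with compound (4-fold, 11-point titration from 15 μM) in RPMI+10% FBS. Supernatant hIL6, hTNFα and hIFNα measured by HTRF; growth medium as negative control.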

hTLR7 = biological target: T1, hTLR7 (Homo sapiens, UniProt Q9NYK1); assay: Reporter Gene Assay (RGA), HEK-Blue hTLR7 reporter cells, SEAP readout; settings: overnight incubation, SEAP absorbance 620 nm
T1 construct: host or cells: HEK-Blue hTLR7 reporter cells (HEK293-derived, own knowledge)
T1 sequence (Q9NYK1 27-1049): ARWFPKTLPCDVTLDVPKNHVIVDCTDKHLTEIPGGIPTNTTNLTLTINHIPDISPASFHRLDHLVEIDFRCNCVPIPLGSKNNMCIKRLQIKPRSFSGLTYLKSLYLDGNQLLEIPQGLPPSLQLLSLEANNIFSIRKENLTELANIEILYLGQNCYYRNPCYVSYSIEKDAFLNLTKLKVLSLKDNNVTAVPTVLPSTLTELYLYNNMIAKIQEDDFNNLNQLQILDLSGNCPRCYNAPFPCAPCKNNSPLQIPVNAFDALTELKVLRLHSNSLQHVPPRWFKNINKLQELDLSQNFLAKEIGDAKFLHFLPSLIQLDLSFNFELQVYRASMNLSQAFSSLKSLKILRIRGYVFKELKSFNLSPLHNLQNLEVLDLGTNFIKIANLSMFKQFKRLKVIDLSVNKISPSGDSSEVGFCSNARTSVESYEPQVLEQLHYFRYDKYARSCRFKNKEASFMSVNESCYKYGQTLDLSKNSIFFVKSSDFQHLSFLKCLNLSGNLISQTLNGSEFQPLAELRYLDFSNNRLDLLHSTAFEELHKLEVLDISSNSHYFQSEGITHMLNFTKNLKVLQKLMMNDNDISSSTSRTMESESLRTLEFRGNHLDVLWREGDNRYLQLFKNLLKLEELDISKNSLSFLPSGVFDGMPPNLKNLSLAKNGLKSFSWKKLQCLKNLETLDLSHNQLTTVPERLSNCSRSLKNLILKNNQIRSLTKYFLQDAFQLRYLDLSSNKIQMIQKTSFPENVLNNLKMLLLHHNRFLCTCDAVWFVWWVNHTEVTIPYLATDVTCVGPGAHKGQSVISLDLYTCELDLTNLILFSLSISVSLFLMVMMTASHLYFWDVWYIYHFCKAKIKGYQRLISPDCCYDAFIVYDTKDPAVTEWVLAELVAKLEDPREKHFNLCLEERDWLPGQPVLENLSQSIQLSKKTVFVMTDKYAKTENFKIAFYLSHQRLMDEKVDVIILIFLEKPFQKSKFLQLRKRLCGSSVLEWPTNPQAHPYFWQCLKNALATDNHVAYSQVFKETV
Procedure, shortened: (§1)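 HEK-Blue reporter cells expressing human or mouse TLR7 (1.5×10^4 cells) were treated with an 11-point, 4-fold compound titration from 15 pM in HEK-Blue Detection medium. Incubation was overnight at 37° C with 5% CO2. Secreted embryonic alkaline phosphatase was read as absorbance at 620 nm.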

Mouse splenocytes = assay: Mouse Splenocyte Assay, cytokine release (HTRF); settings: 24 hours, mIL6 in supernatant; for EC50: Splenocyte, read-out: Splenocyte IL6 EC50
Description: Mouse splenocytes were isolated from fresh mouse spleens. Briefly, spleens were harvested from female balb/c nude mice and transferred to a 70 μm cell strainer. The cell strainer was subsequently placed in a 6-well suspension culture plate containing 5 mL media (RPMI+10% FBS). The spleens were crushed against the cell strainer using the flat end of a 10 mL syringe plunger and the cell strainer was washed with 5 mL media. The cell strainer was discarded, and the cell suspension was washed in PBS. Red blood cells were removed using PharmaLyse (BD). The cell suspension was washed in media, resuspended in CryoStor® CS10 ([…]) and frozen. On assay day, mouse splenocytes were thawed in warm assay buffer (RPMI+10% FBS). Cells were spun down and resuspended in fresh assay buffer. 100,000 cells were added to each well of plates containing test compound. For test compound preparation, each compound was initially diluted to 1 mM in DMSO and further diluted in assay buffer. A 4-fold 11-point titration starting from 15 μM was performed. Cells were incubated with test compound at 37° C.+5% CO2 for 24 hours before supernatant was harvested. Murine IL6 (mIL6) and murine TNFα (mTNFα) were quantified in the supernatant using homogeneous time resolved fluorescence (Cisbio).
Each assay included a positive control compound (referred to herein as “benchmark,” see, e.g., TABLE 3 below, and taken from International Patent Publication No. WO2017/072662, structure shown below) and a negative control (growth medium). […] The structure of the benchmark compound from International Patent Publication No. WO 2017/072662 is as follows: […]

mTLR7 = biological target: T2, mTLR7 (Mus musculus, UniProt P58681); assay: Reporter Gene Assay (RGA), HEK-Blue mTLR7 reporter cells, SEAP readout; settings: overnight incubation, SEAP absorbance 620 nm
T2 construct: host or cells: HEK-Blue mTLR7 reporter cells (HEK293-derived, own knowledge)
T2 sequence (P58681 27-1050): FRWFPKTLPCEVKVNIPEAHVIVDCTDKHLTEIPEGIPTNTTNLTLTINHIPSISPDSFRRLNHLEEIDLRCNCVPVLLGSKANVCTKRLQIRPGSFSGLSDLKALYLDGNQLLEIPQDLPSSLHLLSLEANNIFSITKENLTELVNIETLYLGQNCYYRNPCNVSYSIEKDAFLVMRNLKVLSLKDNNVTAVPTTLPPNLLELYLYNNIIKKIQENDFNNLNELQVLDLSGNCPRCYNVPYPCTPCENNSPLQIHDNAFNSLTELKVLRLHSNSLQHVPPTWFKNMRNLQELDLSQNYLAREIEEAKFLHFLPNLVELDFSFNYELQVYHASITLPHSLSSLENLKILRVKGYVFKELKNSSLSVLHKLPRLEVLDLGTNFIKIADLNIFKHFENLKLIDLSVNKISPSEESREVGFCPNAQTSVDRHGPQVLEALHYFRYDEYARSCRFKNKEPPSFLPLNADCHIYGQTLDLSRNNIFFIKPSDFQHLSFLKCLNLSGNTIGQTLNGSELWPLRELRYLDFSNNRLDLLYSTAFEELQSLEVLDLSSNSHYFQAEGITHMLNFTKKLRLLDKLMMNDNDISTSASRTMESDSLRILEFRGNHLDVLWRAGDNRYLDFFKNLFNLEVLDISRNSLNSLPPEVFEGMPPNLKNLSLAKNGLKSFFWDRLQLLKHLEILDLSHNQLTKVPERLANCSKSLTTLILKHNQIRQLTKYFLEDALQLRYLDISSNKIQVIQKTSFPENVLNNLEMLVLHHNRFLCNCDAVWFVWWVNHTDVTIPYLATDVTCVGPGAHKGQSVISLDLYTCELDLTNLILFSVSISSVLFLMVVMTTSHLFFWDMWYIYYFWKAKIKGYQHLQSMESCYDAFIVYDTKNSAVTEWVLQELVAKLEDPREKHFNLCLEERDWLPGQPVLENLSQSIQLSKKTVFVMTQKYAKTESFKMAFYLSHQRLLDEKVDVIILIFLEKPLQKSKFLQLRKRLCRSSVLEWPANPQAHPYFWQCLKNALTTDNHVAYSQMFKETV
Procedure, shortened: as §1

[2] = hIFNα in supernatant, EC50 values approximated and divided into groups, read-out: PBMC IFNa EC50
[3] = hIL6 in supernatant, read-out: PBMC IL6 EC50

Row | SMILES | EC50 [1, 2] [nM] | EC50 [1, 3] [nM] | EC50 (hTLR7) [nM] | EC50 (Mouse splenocytes) [nM] | EC50 (mTLR7) [nM] | Splenocyte IL6 EC50 (nM) (Mouse splenocytes)
1 | CCOc1nc(N)c2nc(O)n(Cc3ccc(CN(CC(=O)O)CC(=O)O)cc3OC)c2n1 [Compound 120, 2,2′-((4-((6-amino-2-ethoxy-8-hydroxy-9H-purin-9-yl)methyl)-3-methoxy-benzyl)azanediyl) diacetic Acid] | > 10 | 524 | 33.2 | 881 | 637 | –
2 | CCOc1nc(N)c2nc(O)n(Cc3ccc(CN[C@H](C(=O)O)[C@@H](C)CC)cc3OC)c2n1 [Compound 121, (4-((6-amino-2-ethoxy-8-hydroxy-9H-purin-9-yl)methyl)-3-methoxybenzyl)-L-isoleucine] | > 10 | 13300 | 343 | ≥ 1000 | 772 | –
3 | CCOc1nc(N)c2nc(O)n(Cc3ccc(CN[C@H](CO)[C@@H](C)CC)cc3OC)c2n1 [Compound 122, 6-amino-2-ethoxy-9-(4-((((2S,3S)-1-hydroxy-3-methylpentan-2-yl)amino)-methyl)-2-methoxybenzyl)-9H-purin-8-ol] | 0.1 to 1 | 279 | 9 | 66.1 | 10.2 | –
4 | CCOc1nc(N)c2nc(O)n(Cc3ccc(CN)cc3OC)c2n1 [Compound 123, 6-amino-9-(4-(aminomethyl)-2-methoxybenzyl)-2-ethoxy-9H-purin-8-ol] | 1 to 10 | 684 | 30.7 | 145 | 146 | –
5 | CCNCc1ccc(Cn2c(O)nc3c(N)nc(OCC)nc32)c(OC)c1 [Compound 124, 6-amino-2-ethoxy-9-(4-((ethylamino)methyl)-2-methoxybenzyl)-9H-purin-8-ol] | 0.1 to 1 | 674 | 5.4 | 744 | 33.5 | –
6 | CCCN(CCC)Cc1ccc(Cn2c(O)nc3c(N)nc(OCC)nc32)c(OC)c1 [Compound 125, 6-amino-9-(4-((dipropylamino)methyl)-2-methoxybenzyl)-2-ethoxy-9H-purin-8-ol] | 1 to 10 | 2230 | 0.5 | 171 | 4.3 | –
7 | CCOc1nc(N)c2nc(O)n(Cc3ccc(CN4C[C@@H]5C[C@H]4CN5)cc3OC)c2n1 [Compound 128, 9-(4-(((1S,4S)-2,5-diazabicyclo[2.2.1]heptan-2-yl)methyl)-2-methoxybenzyl)-6-amino-2-ethoxy-9H-purin-8-ol] | 1 to 10 | 167 | 18.2 | – | 443 | inactive
8 | CCOc1nc(N)c2nc(O)n(Cc3ccc(CN4CCC(CN)CC4)cc3OC)c2n1 [Compound 132, 6-amino-9-(4-((4-(aminomethyl)piperidin-1-yl)methyl)-2-methoxybenzyl)-2-ethoxy-9H-purin-8-ol] | > 10 | 116 | 5.8 | 234 | 65.1 | –
9 | CCOc1nc(N)c2nc(O)n(Cc3ccc(CNCCN4CCOCC4)cc3OC)c2n1 [Compound 135, 6-amino-2-ethoxy-9-(2-methoxy-4-(((2-morpholinoethyl)amino)methyl)benzyl)-9H-purin-8-ol] | 0.1 to 1 | 42.3 | 13.3 | 137 | 157 | –
10 | CCOc1nc(N)c2nc(O)n(Cc3ccc(CNCCN4CCSCC4)cc3OC)c2n1 [Compound 137, 6-amino-2-ethoxy-9-(2-methoxy-4-(((2-thiomorpholinoethyl)amino)methyl)-benzyl)-9H-purin-8-ol] | 0.1 to 1 | 39.4 | 22.2 | 230 | 210 | –
11 | CCOc1nc(N)c2nc(O)n(Cc3ccc(CN4CCC(C5CCNCC5)CC4)cc3OC)c2n1 [Compound 138, 9-(4-([4,4′-bipiperidin]-1-ylmethyl)-2-methoxybenzyl)-6-amino-2-ethoxy-9H-purin-8-ol] | > 10 | 130 | 17.2 | 186 | 243 | –
12 | CCOc1nc(N)c2nc(O)n(Cc3ccc(CN4CCC5(CCNCC5)CC4)cc3OC)c2n1 [Compound 139, 9-(4-((3,9-diazaspiro[5.5]undecan-3-yl)methyl)-2-methoxybenzyl)-6-amino-2-ethoxy-9H-purin-8-ol] | > 10 | 115 | 6.5 | 170 | 96.5 | –
13 | CCOc1nc(N)c2nc(O)n(Cc3ccc(CN4CCC(CCN)CC4)cc3OC)c2n1 [Compound 140, 6-amino-9-(4-((4-(2-aminoethyl)piperidin-1-yl)methyl)-2-methoxybenzyl)-2-ethoxy-9H-purin-8-ol] | > 10 | 53.6 | 6.8 | 180 | 34.8 | –
14 | CCCN(CCC)Cc1ccc(CNCc2ccc(Cn3c(O)nc4c(N)nc(OCC)nc43)c(OC)c2)cc1 [Compound 141, 6-amino-9-(4-(((4-((dipropylamino)methyl)benzyl)amino)methyl)-2-methoxy-benzyl)-2-ethoxy-9H-purin-8-ol] | < 0.1 | 9290 | 0.1 | 1.3 | 1 | –
